Measurements: patent US20190022225A1, “PROTOCOL FOR INCREASING LIFE EXPECTANCY IN A TEST SUBJECT” (Mayo Foundation for Medical Education and Research, priority 2015, published 2019)

What was measured:
[1] = system: LDLR−/−/3MR double transgenic mice; assay: Atherosclerosis model, LDLR-/-/3MR mice, 100 day ganciclovir treatment period; type: in vivo, mouse
Method: The impact of clearance of senescent cells on the stability and size of mature atherosclerotic plaques was studied in LDLR^−/− MR double transgenic mice. From 10 weeks of age, LDLR^−/− MR double transgenic mice (10 weeks) and LDLR^−/− single transgenic mice (control) were fed a high fat diet (Harlan Teklad TD.88137) having 42% calories from fat beginning at Week 0 until Week 12.5, when the mice were switched to normal chow diet. Both groups of mice were treated with ganciclovir from week 12.5 over the next 100 days, with each treatment cycle comprising 5 days of ganciclovir (25 mg/kg intraperitoneally daily) and 14 days off. At the end of the 100 day treatment period, the mice were sacrificed, plasma and tissues were collected, and atherosclerosis was quantitated. Descending aortas were dissected and stained with Sudan IV to visualize the plaque lipids. […] Plaques from ganciclovir-treated LDLR^−/− control and LDLR^−/− MR mice (see dashed circled plaques in FIGS. 55A-B, respectively) were harvested and cut into cross-sections and stained with […] the general architecture of the atherosclerotic plaques. “#” indicates fat located on the outside of the aorta (see FIG. 55A). The plaques marked with an “*” and “*” in FIGS. 55A and B, respectively, are shown as stained cross-sections in FIGS. 55B and D, respectively. […] The plaque from the control mice has identifiable “lipid pockets” accumulating within. […] Disruption or tear in the cap of a lipid-rich plaque is a trigger for coronary events through exposure of plaque thrombogenic components to platelets and clotting components of the blood. Plaques that grow more rapidly as a result of rapid lipid deposition and have thin fibrin caps are prone to rupture. Slowly growing plaques with mature fibrin caps tend to stabilize and are not prone to rupture. Taken together, these experiments indicate that removal of senescent cells may affect atherosclerotic plaque architecture and have a stabilizing effect.

[2] = system: p16-3MR mice fed a high fat diet; assay: Glucose tolerance, insulin tolerance and body parameters in high fat fed p16-3MR mice; type: in vivo, mouse
Method: Groups of p16-3MR mice (n=9) were fed a high fat diet for four months mice or a regular chow diet. Animals were then treated with ganciclovir (3 rounds of 25 mg/kg ganciclovir administered daily for five consecutive days) or vehicle. A glucose bolus was given at time zero, and blood glucose was monitored at 20, 30, 60, and 120 minutes after delivering glucose to determine glucose disposal (see FIG. 69A). […] Insulin sensitivity was also determined (Insulin Tolerance Testing (ITT)). […] Changes in weight, body composition, and food intake were also monitored.

[3] = system: C57BL/6J mice; assay: Rotarod motor coordination in 23 month old C57BL/6J mice; type: in vivo, mouse
Method: A group of 34 C57BL/6J mice were tested for motor coordination in a rotarod at 23 months of age. Mice were tested for 4 consecutive days. Each session consisted of 4 runs in which the speed of the rotating rod increased from 4 to 40 rpm over 5 minutes. Mice were allowed to run until they fell. The latency to fall was recorded for each run, and averaged to obtain a single value for each session. Half of the mice were then treated with 50 mg/kg nutlin-3a for 14 consecutive days, via IP injection, while the rest of them were sham injected. 3 weeks after the last day of treatment, motor coordination was assessed following the described procedure.
Values higher than 1 correspond to an increase in motor coordination after treatment. The average of 4 runs for each animal and the average (±SEM) for each group are shown.
The average of 4 runs is shown for each day (±SEM).

[4] = system: senescent mouse embryonic fibroblasts (MEF); assay: Cell count survival assay of Nutlin-3a on irradiation-induced senescent MEFs; type: cell-based; conditions: 10 Gy irradiated MEF; Nutlin-3a 0, 2.5, 10 μM for 9 days
Method: (§1) Foreskin fibroblast cell lines HCA2 and BJ, lung fibroblast cell line IMR90, and mouse embryonic fibroblasts were seeded in six-well plates and induced to senesce with 10 Gy of ionizing radiation (IR) or a 24 hr treatment with doxorubicin (Doxo). Senescent phenotype was allowed to develop for at least 7 days, at which point a cell count was made to determine the baseline number of cells. Nutlin-3a treatment was then initiated for a period of at least 9 days. Media alone or media with drug as appropriate was refreshed at least every three days. At the end of the assay time period, cells are counted. Each condition was seeded in three plate wells and counted independently. Initial cell count serves as a control to determine the induction of senescence, as compared to the last day count without nutlin treatment. Initial non-senescent cell count serves as a proxy to determine Nutlin-3a toxicity.
(§2) Foreskin fibroblast cell lines HCA2 and BJ, lung fibroblast cell line IMR90, and mouse embryonic fibroblasts were exposed to 10 Gy of ionizing radiation (IR) to induce senescence. […] Percent survival was calculated as [cell count on day 9 of Nutlin-3a treatment/initial cell count on first day of Nutlin-3a treatment].

[5] = system: senescent foreskin fibroblasts (HCA2 and BJ), lung fibroblasts (IMR90); assay: Cell count survival assay of Nutlin-3a on irradiation-induced senescent fibroblasts; type: cell-based, human; conditions: 10 Gy irradiated HCA2, BJ, Nutlin-3a 0, 2.5, 10 μM for 9 days
Method: as §1, §2

| Structure (SMILES) | % of the aorta covered in plaques ([1]; area of Sudan IV staining, versus LDLR−/− control mice) | atherosclerotic plaques in descending aorta (Sudan IV staining) ([1]; cycles of 5 days 25 mg/kg ip daily, 14 days off, 100 days) | plaque morphology ([1]; stained cross-sections) | insulin tolerance testing: decrease in blood glucose ([2]; 0, 14, 30, 60 and 120 minutes) | glucose tolerance test AUC versus vehicle ([2]; 3 rounds of 25 mg/kg daily for five days) | Hemoglobin A1c ([2]; high fat diet) | body weight, body composition (percent of fat), food intake ([2]; mouse, in vivo) | rotarod performance (latency to fall) ([3]; 50 mg/kg IP 14 days, after three days of training, p<0.05) | ratio of latency to fall, fourth session after treatment / fourth baseline session ([3]; p<0.01) | rotarod performance over the training period ([3]; p<0.01, 2-way ANOVA) | cell survival of senescent MEF (percent survival) [4] | cell survival of senescent fibroblasts (percent survival) [5] |
| --- | --- | --- | --- | --- | --- | --- | --- | --- | --- | --- | --- | --- |
| Nc1nc(O)c2ncn(COC(CO)CO)c2n1 [ganciclovir] | significantly lower | fewer atherosclerotic plaques with less intense staining | presence of a thick fibrin cap and the absence of lipid pockets | greater decrease in blood glucose | significantly lower | lower | did not alter | – | – | – | – | – |
| COc1ccc(C2=N[C@@H](c3ccc(Cl)cc3)[C@@H](c3ccc(Cl)cc3)N2C(=O)N2CCNC(=O)C2)c(OC(C)C)c1 [Nutlin-3a] | – | – | – | – | – | – | – | increased rotarod performance | higher average ratio | better performance | reduced cell survival | reduced cell survival |
